In test [1] the test system is Ps. aeruginosa ATCC 17648. Description: microbe, parasite or virus in culture. The test is classed as cell-based, Pseudomonas aeruginosa. The conditions noted are these: ATCC 17648. The source says:
(§1) The bacteria used in this study included Streptococcus mutans ATCC10449, Streptococcus mutans AU 159, Streptococcus mutans GS-5, Streptococcus mutans GS-5 mutant (^gtf BCD), Streptococcus gordonii Challis, Porphyromonas gingivalis W50, Porphyromonas gingivalis 381, A. actinomycetemcomitans NCTC 9710, Pseudomonas aeruginosa ATCC 17648, and Escherichia coli HB101. One quarter strength (25%) of brain heart infusion broth (BHI, DIFCO Laboratories, Detroit, Mich.) was used for the growth of S. mutans, S. gordonii, A. actinomycetemcomitans, Ps. aeruginosa, and E. coli. For growth of P. gingivalis, tryptic soy broth-yeast extract medium (TSBY, DIFCO Laboratories, Detroit, Mich.) supplemented with cysteine hydrochloride (0.05%), menadione (0.02 μg/ml), hemin (5 μg/ml), and potassium nitrate (0.02%) was used. All bacteria were cultured at 37° C.; Ps. aeruginosa and E. coli were grown aerobically, and the other bacteria, anaerobically. To prepare bacterial cell suspension for antibacterial activity assays, each overnight culture was harvested by centrifuge (3783 g, 10 min), washed once with 10 mM sodium phosphate-buffered saline (PBS, pH 7.2), resuspended in PBS and adjusted to a concentration of 1×10^6 cells/mL.
(§2) MICs of the peptides were determined by broth microdilution method as previously described (5). Briefly, two-fold serial dilutions of each peptide were prepared with 25% BHI medium at a volume of 200 μl per well in 96-well flat-bottom microtiter plates (Costar, Cambridge, Mass.). The final concentration of the peptides ranged from 0.78 to 100 μM, and chlorhexidine (CHX), used as a positive control, from 20 to 0.16 μM (10 to 0.078 μg/mL). The microtiter plate was inoculated with bacterial cell suspension with final concentration of 5×10^6 CFU/mL for P. gingivalis and 5×10^5 CFU/mL for the other bacterial species. After incubation at 37° C. for 48 h, the absorbance was measured at 595 nm by using a microplate reader (Model 3550, Bio-Rad, Japan) to assess the cell growth. […] The MIC value represents the median of at least three independent experiments. The minimal bactericidal concentration (MBC) was determined as follows. Aliquot (100 μl) of cell suspension was taken from two wells above MIC, centrifuged, and washed three times with PBS. Then each cell suspension was plated on TSBY agar plate, and bacterial cells were enumerated after incubation at 37° C. for 48 h. The MBC was defined as the lowest concentration of the peptide at which more than 99.9% of cells were killed compared to non-treated control.

Another test deals with E. coli HB101. Description: microbe, parasite or virus in culture. It counts as cell-based, Escherichia coli.
Source text: as §1, §2

For test [2], the system named is S. mutans GS-5 1-day biofilm. It counts as cell-based, Streptococcus mutans. On the procedure:
FIG. 12. Effect of peptides on 1-day biofilm of S. mutans. One-day mature biofilm was prepared as described above. BHI medium supplemented with 1% sucrose (BHIS) with peptides, prepared in another microtiter plate, was then transferred to the biofilm plate. After further incubation at 37° C. for 24 h, the biofilm was fixed, stained, and quantified as describe above. Data represents mean and SD of two independent tests performed in duplicated. Empty bar: growth, solid bar: biofilm.
To examine the effects of the peptides on 1-day mature biofilm, S. mutans GS-5 was inoculated into the wells of another polystyrene microtiter plate containing BHIS at a volume of 200 μl per well. After incubation at 37° C. for 24 h, the culture supernatants from each well were decanted and planktonic cells were removed by washing with PBS. BHIS containing 0.78 to 100 μM peptides, prepared in another microtiter plate, was then transferred to the 1-day biofilm plate, and further incubated at 37° C. for one day. The biofilm was fixed, stained, and quantified as describe above.

Another test relates to S. mutans. Description: microbe, parasite or virus in culture. The conditions noted are these: median of four strains.
Source text: as §1, §2

Another test concerns P. gingivalis. Description: microbe, parasite or virus in culture. The test is classed as cell-based, Porphyromonas gingivalis.
Source text: as §1, §2

The next test concerns S. mutans GS-5. Description: Time-kill assay. It counts as cell-based, Streptococcus mutans. The conditions noted are these: after 4 h incubation, each agent at its MIC. On the procedure: FIG. 10. Time-Killing curves for S. mutans. […] Control (▪), MUC7 12-mer-L (Δ), MUC7 12-mer-D (□), MUC7 20-mer (▴), Hsn5 12-mer (×), magainin II (●), chlorhexidine (◯).
For the peptides MUC7 12-mer-L, MUC7 12-mer-D, and MUC7 20-mer, time-kill kinetic studies against S. mutans were performed by the broth macrodilution method. S. mutans GS-5 (1×10^6 CFU/ml) and antibacterial agens (find concentrations of 12.5 μM for each peptide, and 2 μM for CHX; their MICs) were incubated in 25% BHI at 37° C. At the time of 0, 1, 2, 4, 8, and 24 h, samples were taken and viable counts determined as follows: The samples were serially diluted (10^−1 to 10^−4) in sterile 10 mM PBS (pH 7.2) and 50 μl aliquots were plated onto TSBY agar. The plates were incubated anaerobically at 37° C. for 48 h, followed by enumerating the CFU. Killing curves were constructed by plotting the log10 CFU per milliliter versus time over 24 h. All assays were done in duplicate on at least two occasions.

Test [3] concerns A. actinomycetemcomitans NCTC 9710. Description: microbe, parasite or virus in culture. The test is classed as cell-based.
Source text: as §1, §2

The test system of another test is S. gordonii Challis. Description: microbe, parasite or virus in culture. It counts as cell-based, Streptococcus gordonii.
Source text: as §1, §2

A further test deals with S. mutans GS-5 biofilm. It counts as cell-based, Streptococcus mutans. On the procedure:
FIG. 11. Effect of peptides on the biofilm formation of S. mutans. The bacterial cells (5×10^5 cfu ml^−1) were inoculated in 96-well microtiter plate containing 25% BHIS medium with different concentration of each agent. Culture without agent was used as no treatment control. After incubation at 37° C. for 24 h, absorbance at 595 nm was recorded to assess the cell growth. Biofilm assay was performed by discarding the supernatants, washing with PBS, fixing with methanol, and staining with CV. The absorbance at 570 nm was recorded to assess the amount of biofilm. The activity was expressed as % of control. Data represents mean and SD of two independent tests with duplicates for each. Empty bar: growth, solid bar: biofilm.
The effect of the peptides on S. mutans in biofilm formation was examined by the microdilution method. This method is similar to the MIC assay for planktonic cells. Two-fold serial dilutions of each peptide were prepared in wells of polystyrene microtiter plates (Microtest tissue culture plate, 96 well, Falcon, Becton Dickinson and Company, N.J.) containing 25% BHI medium supplemented with 1% sucrose (BHIS) at a volume of 200 μl per well. The final concentration of the peptide ranged from 0.78 to 100 μM for each peptide. Chlorhexidine (CHX, 0.078 to 10 μg/mL) was used as the positive control, the medium without drug as the non-treated control, and the medium alone as the blank control. The cells suspension of S. mutans GS-5 was prepared as describe in MIC assay and 20 μl aliquot (final concentration of cells 5×10^5 CFU/mL) was inoculated to the wells of polystyrene microtiter plates. After incubation at 37° C. for 20 h, the culture supernatants from each well were decanted and planktonic cells were removed by washing with PBS, pH 7.2. The biofilm was fixed with methanol for 15 min and then air dried at room temperature. The biofilm was then stained with 0.1% (wt/vol) crystal violet (Sigma) for 5 min. and rinsed thoroughly with water until the control wells appeared colorless. Biofilm formation was quantified by the addition of 200 μl of 95% ethanol to each crystal violet-stained well. The plate was rocked at room temperature for 30 min and the absorbance at 595 nm (A595 nm) was determined with a microplate reader (BioRad Model 3550 Microplate Reader). Percentage of inhibition was calculated with the equation: (1−A595 nm of the test/A595nm of non-treated control)×100.

From patent US7271239B2, “D-isomers of antimicrobial peptide” (The Research Foundation of State University of New York, priority 2004, dated 2007) come the findings set out here.

Structures are written as SMILES. ≈ marks a conversion by molar mass, not a printed value. Like-named read-outs stand apart in the source and are kept apart here. Where a SMILES comes first, the peptide text is derived from it.

For the compound `CC[C@H](C)[C@H](NC(=O)[C@H](Cc1ccccc1)NC(=O)[C@@H]1CCCN1C(=O)[C@H](CCCCN)NC(=O)[C@H](CCC(N)=O)NC(=O)[C@H](Cc1c[nH]cn1)NC(=O)[C@H](C)NC(=O)[C@@H](N)CC(C)C)C(=O)N[C@@H](CCCNC(=N)N)C(=O)N[C@@H](CCCCN)C(=O)N[C@@H](CO)C(=O)N[C@@H](Cc1ccc(O)cc1)C(=O)N[C@@H](CCCCN)C(=O)N[C@@H](CS)C(=O)N[C@@H](CC(C)C)C(=O)N[C@@H](Cc1c[nH]cn1)C(=O)N[C@@H](CCCCN)C(=O)N[C@@H](CCCNC(=N)N)C(=O)N[C@@H](CS)C(=O)N[C@@H](CCCNC(=N)N)C(=O)O` [MUC7 20-mer] (H-LAHQKPFIRKSYKCLHKRCR-OH; N-terminus and C-terminus assumed), the “MBC (μM)” value in test [1] was above 100 µM; against E. coli HB101, 100.0 µM (≈ 251 µg/mL); with S. mutans, 12.5 µM (≈ 31.4 µg/mL); in [3] (NCTC 9710), 100.0 µM (≈ 251 µg/mL); against S. gordonii Challis it was 25.0 µM (≈ 62.8 µg/mL). Also, the “MBC (μg/ml)” value in test [1] was above 251 µg/mL; in the test on S. mutans it was 31.4 µg/mL (≈ 12.5 µM); in test [3], 251.3 µg/mL (≈ 100 µM); in the test on S. gordonii Challis, 62.8 µg/mL (≈ 25 µM). In addition, the “MIC (μM)” value in [1] was above 100 µM; against E. coli HB101 it was 100.0 µM (≈ 251 µg/mL); against P. gingivalis, above 100 µM; in test [3] (NCTC 9710) it was 100.0 µM (≈ 251 µg/mL); in the test with S. gordonii Challis it was 12.5 µM (≈ 31.4 µg/mL). The “MIC (μg/ml)” value in test [1] was above 251 µg/mL; in the test with P. gingivalis it was above 251 µg/mL; in test [3] it was 251.3 µg/mL (≈ 100 µM); against S. gordonii Challis, 31.4 µg/mL (≈ 12.5 µM). Further, the “MBEC50 (μg/ml)” value in test [2] is 62 µg/mL. Moreover, the “MBEC50 (μM)” value in test [2] (GS-5 1-day biofilm, 24 h) was 25 µM. Also, in test [2] (at or more than MBEC50), the “eradication of 1-day developed biofilm” value was “reduction of biofilm was observed”. Also, the “reduction of the viable counts of S. mutans” value in the test on S. mutans GS-5 was determined as 2 log10. For the same compound, the “MBIC50” value was 15.5 µg/mL with S. mutans GS-5 biofilm and 6.25 µM in the test with S. mutans GS-5 biofilm (GS-5 biofilm, 24 h).
